Results as given in US8912227B1, “Bicyclic pyrrole derivatives useful as agonists of GPR120” (Janssen Pharmaceutica NV, priority 2014, dated 2014).

What was measured:
Human GPR120 short form [1] = biological target: T1, Human GPR120 short form (Homo sapiens, UniProt Q5NUL3); experiment: Human GPR120 calcium flux assay, Procedure Calcium A; type: cell-based; settings: HEK-293 cells expressing human GPR120 short form, 2500 cells/well, FLIPR
T1 construct: expressed in transfected cells
T1 sequence (Q5NUL3 1-361): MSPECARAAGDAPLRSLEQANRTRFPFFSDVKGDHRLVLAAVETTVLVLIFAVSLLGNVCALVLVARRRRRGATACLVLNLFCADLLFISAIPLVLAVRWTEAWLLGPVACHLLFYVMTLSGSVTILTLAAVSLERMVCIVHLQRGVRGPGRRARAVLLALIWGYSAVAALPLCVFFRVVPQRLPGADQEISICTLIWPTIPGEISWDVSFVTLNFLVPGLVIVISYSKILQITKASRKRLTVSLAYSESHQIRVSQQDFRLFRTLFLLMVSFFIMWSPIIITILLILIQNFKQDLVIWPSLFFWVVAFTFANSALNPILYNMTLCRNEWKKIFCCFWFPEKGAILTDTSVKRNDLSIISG
From the text: (§1) This in vitro assay serves to assess test compound agonist activity against the short splice variant (SVS with Accession number NM_001195755.1 confirmed by sequencing data) of the GPR120 receptor. The Human Short splice variant #2 (NM_001195755.1) is missing an in-frame coding exon compared to variant 1 (the Human Long splice variant NM_181745.3), resulting in a shorter isoform (GPR120-S) lacking a 16 aa protein segment compared to isoform GPR120-L. The assay platform utilizes HEK-293 cells stably transfected to express the Human GPR120 short form. These cells are first loaded with the Ca^+2 sensitive dye, Fluo-4 NW. Upon stimulation, intracellular released Ca^+2 can bind to the dye and alter its fluorescence intensity. This increase in fluorescence signal, and thus the flux in intracellular [Ca^2+], is detected and quantitated by fluorescence imaging using a FLIPR reader. The effect of the agonist is measured as a function of concentration and used to calculate an EC50 based upon a response curve.
In this procedure 2500 cells/well were employed.
(§2) A Human GPR120 clone (Genbank accession number NM_001195755.1) was placed into the pcDNA3.1 mammalian expression vector carrying the neomycin resistance gene. A stable mammalian cell was generated by placing the above clone into a HEK293 background. Clonal cells responding to long chain fatty acids had expression levels of GPR120 confirmed by RT-qPCR. Human HEK-GPR120 cells were cultured in Dulbecco's Modified Eagle's Medium (DMEM)/F12 medium supplemented with 10% fetal bovine serum (FBS), 1% L-Glutamine and 1% penicillin/streptomycin and 0.5 mg/ml G-418. Cells were split 2 times a week to keep the cells in the log-phase growth.
(§3) In preparation for the assay, HEK cells stably transfected with Human GPR120 (2.5K cells per well in 25 uL growth medium) were seeded into 384-well plates and then incubated overnight (37° C., 5% CO2). The next day, the media was changed to 20 μl assay buffer and the cell starved for 1 h at 37° C. The dye loading solution (2× dye) was prepared using 10 ml assay buffer, 100 μl of 250 mM probenecid, 1 bottle of Component A, and 20 μl of dye in DMSO. Twenty μl of the 2× dye loading buffer was then added to each well. The plates were incubated at 37° C. for 30 min, then at room temperature for an additional 15 minutes, before performing the assay on FLIPR.
(§4) Test compounds were prepared in assay buffer (2 μl of test compound+198 μl assay buffer, final DMSO in assay plate is 0.2%) at the desired concentration, more particularly at 100 μM, 50 μM, 25 μM, 12.5 μM, 6.25 μM, 3.125 μM, 1.562 μM, 0.781 μM, 0.391 μM, 0.195 μM, 0.098 μM, 0.049 μM, 0.024 μM and 0.012 μM.
(§5) The assay was performed on a FLIPR plate reader using the following parameters. Baseline was read for 10 seconds at 1 sec intervals. The program was set to transfer 10 μL of ligand from compound plate to cell plate after baseline reading. Aspiration was executed at: 10 μl/sec speed, 4.6 μl height; Dispensing was executed at: 30 μl/sec speed, 45 μl height. After compound addition, each well was read for 300 sec, with measurements collected at 1 sec intervals.
(§6) The kinetic data from the FLIPR was based upon a 5 minute window for data collection. The fluorescence of each sample well was used for individual calculations of a normalized RFU value, which was defined as maximum response minus the minimum response. The normalized fluorescence reading (RFU) was calculated as follows: RFU=Fmax−Fmin
(§7) The data were fitted to a sigmoidal dose-response curve with a variable Hill slope (<2) using nonlinear regression with GraphPad Prism 5.0 to calculate the EC50 values. The Fitting Equation was: Y=Bottom+(Top−Bottom)/(1+10^((LogEC50−X)*HillSlope)), where X is the log of the concentration and Y is the response.

Human GPR120 short form [2] = biological target: T1, Human GPR120 short form; experiment: Human GPR120 calcium flux assay, Procedure Calcium B; type: cell-based; settings: HEK-293 cells expressing human GPR120 short form, 4200 cells/well, FLIPR
From the text: as §1
In this procedure 4200 cells/well were employed.
as §2, §3, §4, §5, §6, §7

EC50 (Human GPR120 short form [1]) [µM]	EC50 (Human GPR120 short form [2]) [µM]	SMILES
> 20		CCc1ccc(-n2cccc2COc2ccc(CCC(=O)O)c(C)c2C)cc1 [Compound 2, 3-(4-{[1-(4-Ethylphenyl)-1H-pyrrol-2-yl]methoxy}-2,3-dimethylphenyl)propanoic acid]
> 20		O=C(O)CCc1ccc(OCc2cccn2-c2ccc(Cl)cc2)c(F)c1F [Compound 4, 3-(4-{[1-(4-Chlorophenyl)-1H-pyrrol-2-yl]methoxy}-2,3-difluorophenyl)propanoic acid]
1.73	1.17	Cc1c(CCCO)ccc(OCc2c(Cl)ccn2-c2ccc(Cl)cc2)c1C [Compound 7, 3-(4-{[3-Chloro-1-(4-chlorophenyl)-1H-pyrrol-2-yl]methoxy}-2,3-dimethylphenyl)propan-1-ol]
3.71	1.36	N#Cc1ccn(-c2ccc(Cl)cc2)c1COc1ccc(CCC(=O)O)c(F)c1F [Compound 9, 3-(4-{[1-(4-Chlorophenyl)-3-cyano-1H-pyrrol-2-yl]methoxy}-2,3-difluorophenyl)propanoic acid]
4.26	1.14	Cc1c(CCC(=O)O)ccc(OCc2c(C#N)ccn2-c2ccc(Cl)cc2)c1C [Compound 12, 3-(4-{[1-(4-Chlorophenyl)-3-cyano-1H-pyrrol-2-yl]methoxy}-2,3-dimethylphenyl)propanoic acid]
1.56	0.899	Cc1c(CCCO)ccc(OCc2c(Br)ccn2-c2ccc(Cl)cc2)c1C [Compound 13, 3-(4-{[3-Bromo-1-(4-chlorophenyl)-1H-pyrrol-2-yl]methoxy}-2,3-dimethylphenyl)propan-1-ol]
2.89	1.4	Cc1c(CCC(=O)O)ccc(OCc2c(Br)ccn2-c2ccc(Cl)cc2)c1C [Compound 14, 3-(4-{[3-Bromo-1-(4-chlorophenyl)-1H-pyrrol-2-yl]methoxy}-2,3-dimethylphenyl)propanoic acid]
1.3	0.611	Cc1c(CCCO)ccc(OCc2c(C(F)(F)F)ccn2-c2ccc(Br)cc2)c1C [Compound 18, 3-(4-{[1-(4-Bromophenyl)-3-(trifluoromethyl)-1H-pyrrol-2-yl]methoxy}-2,3-dimethylphenyl)propan-1-ol]
1.27	0.289	O=C(O)CCc1ccc(OCc2c(C(F)(F)F)ccn2-c2ccc(Br)cc2)c(F)c1F [Compound 20, 3-(4-{[1-(4-Bromophenyl)-3-(trifluoromethyl)-1H-pyrrol-2-yl]methoxy}-2,3-difluorophenyl)propanoic acid]
1.52	0.112	O=C(O)CCc1cc(F)c(OCc2c(C(F)(F)F)ccn2-c2ccc(Br)cc2)c(F)c1 [Compound 22, 3-(4-{[1-(4-Bromophenyl)-3-(trifluoromethyl)-1H-pyrrol-2-yl]methoxy}-3,5-difluorophenyl)propanoic acid]
1.11	0.199	Cc1c(CCC(=O)O)ccc(OCc2c(C(F)(F)F)ccn2-c2ccc(Br)cc2)c1C [Compound 23, 3-(4-{[1-(4-Bromophenyl)-3-(trifluoromethyl)-1H-pyrrol-2-yl]methoxy}-2,3-dimethylphenyl)propanoic acid]
1.92	0.896	CCc1ccc(-n2ccc(C(F)(F)F)c2COc2ccc(CCCO)c(C)c2C)cc1 [Compound 40, 3-(4-[[1-(4-ethylphenyl)-3-(trifluoromethyl)-1H-pyrrol-2-yl]methoxy]-2,3-dimethylphenyl)propan-1-ol]
1.26	0.247	CCc1ccc(-n2ccc(C(F)(F)F)c2COc2ccc(CCCO)c(F)c2F)cc1 [Compound 41, 3-(4-[[1-(4-ethylphenyl)-3-(trifluoromethyl)-1H-pyrrol-2-yl]methoxy]-2,3-difluorophenyl)propan-1-ol]
	1.15	O=C(O)CCc1cc(F)c(OCc2c(C(F)(F)C(F)(F)F)ccn2-c2ccc(Cl)cc2)c(F)c1 [Compound 63, 3-(4-((1-(4-chlorophenyl)-3-(perfluoroethyl)-1H-pyrrol-2-yl)methoxy)-3,5-difluorophenyl)propanoic acid]
	0.998	O=C(O)CCc1ccc(OCc2c(C(F)(F)F)ccn2-c2cccc(F)c2)cc1Cl [Compound 79, 3-(2-Chloro-4-{[1-(3-fluorophenyl)-3-(trifluoromethyl)-1H-pyrrol-2-yl]methoxy}phenyl)propanoic acid]
	0.923	O=C(O)CCc1ccc(OCc2c(C(F)(F)F)ccn2-c2ccc(F)cc2)cc1Cl [Compound 80, 3-(2-Chloro-4-{[1-(4-fluorophenyl)-3-(trifluoromethyl)-1H-pyrrol-2-yl]methoxy}phenyl)propanoic acid]
	0.675	O=C(O)CCc1ccc(OCc2c(C(F)(F)F)ccn2-c2cccc(F)c2)cc1C(F)(F)F [Compound 81, 3-[4-{[1-(3-Fluorophenyl)-3-(trifluoromethyl)-1H-pyrrol-2-yl]methoxy}-2-(trifluoromethyl)phenyl]propanoic acid]
	0.834	O=C(O)CCc1ccc(OCc2c(C(F)(F)F)ccn2-c2ccc(F)cc2)cc1C(F)(F)F [Compound 82, 3-[4-{[1-(4-Fluorophenyl)-3-(trifluoromethyl)-1H-pyrrol-2-yl]methoxy}-2-(trifluoromethyl)phenyl]propanoic acid]
	0.346	Cc1c(CCC(=O)O)ccc(OCc2c(C(F)(F)F)ccn2-c2ccc(F)cc2)c1C [Compound 83, 3-(4-{[1-(4-Fluorophenyl)-3-(trifluoromethyl)-1H-pyrrol-2-yl]methoxy}-2,3-dimethylphenyl)propanoic acid]
	0.489	Cc1c(CCC(=O)O)ccc(OCc2c(C(F)(F)F)ccn2-c2cccc(F)c2)c1C [Compound 84, 3-(4-{[1-(3-Fluorophenyl)-3-(trifluoromethyl)-1H-pyrrol-2-yl]methoxy}-2,3-dimethylphenyl)propanoic acid]
	0.448	O=C(O)CCc1cc(F)c(OCc2c(C(F)(F)F)ccn2-c2cccc(F)c2)c(F)c1 [Compound 85, 3-(3,5-Difluoro-4-{[1-(3-fluorophenyl)-3-(trifluoromethyl)-1H-pyrrol-2-yl]methoxy}phenyl)propanoic acid]
	0.28	Cc1cc(CCC(=O)O)ccc1OCc1c(C(F)(F)F)ccn1-c1ccc(F)cc1 [Compound 86, 3-(4-{[1-(4-Fluorophenyl)-3-(trifluoromethyl)-1H-pyrrol-2-yl]methoxy}-3-methylphenyl)propanoic acid]
	0.134	O=C(O)CCc1cc(F)c(OCc2c(C(F)(F)F)ccn2-c2ccc(F)cc2)c(F)c1 [Compound 87, 3-(3,5-Difluoro-4-{[1-(4-fluorophenyl)-3-(trifluoromethyl)-1H-pyrrol-2-yl]methoxy}phenyl)propanoic acid]
	0.404	Cc1cc(CCC(=O)O)ccc1OCc1c(C(F)(F)F)ccn1-c1cccc(F)c1 [Compound 88, 3-(4-{[1-(3-Fluorophenyl)-3-(trifluoromethyl)-1H-pyrrol-2-yl]methoxy}-3-methylphenyl)propanoic acid]
